Reference: patent US20260262643A1, “HERBICIDAL BENZOXAZINES” (FMC CORPORATION, priority 2022, published 2026)

What was measured:
green foxtail [1] = assay: Test C preemergence; format: in vivo, Setaria viridis; details: for Plant response rating, Foxtail, Green: Preemergence; for Foxtail, Green plant response rating: preemergence
In short: (§1)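 Soil-applied (pre) and foliar (post, 1–2 leaf, 2–10 cm) sprays; surfactant-containing non-phytotoxic solvent vehicle; loam/sand substrate. Readout: visual % control at 10 d, greenhouse, versus untreated.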

blackgrass [2] = assay: Test C postemergence; format: in vivo, Alopecurus myosuroides; details: 10 days
In short: as §1

pigweed, palmer [3] = assay: Test C postemergence; format: in vivo, Amaranthus palmeri; details: 10 days
In short: as §1

kochia [4] = assay: Test C postemergence; format: in vivo, Bassia scoparia; details: 10 days
In short: as §1

horseweed = assay: Test C postemergence; format: in vivo, Erigeron canadensis; details: 10 days
In short: as §1

ryegrass, Italian [5] = assay: Test C postemergence; format: in vivo, Lolium multiflorum; details: 10 days
In short: as §1

blackgrass [6] = assay: Test C preemergence; format: in vivo, Alopecurus myosuroides; details: for Plant response rating, Blackgrass: Preemergence; for Blackgrass plant response rating: preemergence
In short: as §1

ragweed [7] = assay: Test C postemergence; format: in vivo, Ambrosia artemisiifolia; details: 10 days
In short: as §1

barnyardgrass [8] = assay: Test D flooded paddy test; format: in vivo, Echinochloa crus-galli; details: 250 g ai/ha, applied to paddy water, visual rating after 13 to 14 days, scale 0 to 100 (0 no effect, 100 complete control)
In short: (§2)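 Rating scale 0–100 (0 no effect, 100 complete control), visual, versus controls. Readout at 13–14 days after in-water application to 2-leaf plants in pots flooded 3 cm deep.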

green foxtail [9] = assay: Test C postemergence; format: in vivo, Setaria viridis; details: 10 days
In short: as §1

oat, wild [10] = assay: Test C postemergence; format: in vivo, Avena fatua; details: 10 days
In short: as §1

wheat [11] = assay: Test C preemergence; format: in vivo, Triticum aestivum; details: for Plant response rating, Wheat: Preemergence; for Wheat plant response rating: preemergence
In short: as §1

kochia [12] = assay: Test C preemergence; format: in vivo, Bassia scoparia; details: for Plant response rating, Kochia: Preemergence; for Kochia plant response rating: preemergence
In short: as §1

corn [13] = assay: Test C postemergence; format: in vivo, Zea mays; details: 10 days
In short: as §1

barnyardgrass [14] = assay: Test C preemergence; format: in vivo, Echinochloa crusgalli; details: for Plant response rating, Barnyardgrass: Preemergence; for Barnyardgrass plant response rating: preemergence
In short: as §1

soybean [15] = assay: Test C postemergence; format: in vivo, Glycine max; details: 10 days
In short: as §1

ryegrass, Italian [16] = assay: Test C preemergence; format: in vivo, Lolium multiflorum; details: for Plant response rating, Ryegrass, Italian: Preemergence; for Ryegrass, Italian plant response rating: preemergence
In short: as §1

rice = assay: Test D flooded paddy test; format: in vivo, Oryza sativa; details: 250 g ai/ha, applied to paddy water, visual rating after 13 to 14 days, scale 0 to 100 (0 no effect, 100 complete control)
In short: as §2

pigweed, palmer [17] = assay: Test C preemergence; format: in vivo, Amaranthus palmeri; details: for Plant response rating, Pigweed, Palmer: Preemergence; for Pigweed, Palmer plant response rating: preemergence
In short: as §1

wheat [18] = assay: Test C postemergence; format: in vivo, Triticum aestivum; details: 10 days
In short: as §1

ducksalad = assay: Test D flooded paddy test; format: in vivo, Heteranthera limosa; details: 250 g ai/ha, applied to paddy water, visual rating after 13 to 14 days, scale 0 to 100 (0 no effect, 100 complete control)
In short: as §2

oat, wild [19] = assay: Test C preemergence; format: in vivo, Avena fatua; details: for Plant response rating, Oat, Wild: Preemergence; for Oat, Wild plant response rating: preemergence
In short: as §1

soybean [20] = assay: Test C preemergence; format: in vivo, Glycine max; details: for Plant response rating, Soybean: Preemergence; for Soybean plant response rating: preemergence
In short: as §1

galium = assay: Test C postemergence; format: in vivo, Galium aparine; details: 10 days
In short: as §1

sedge, umbrella = assay: Test D flooded paddy test; format: in vivo, Cyperus difformis; details: 250 g ai/ha, applied to paddy water, visual rating after 13 to 14 days, scale 0 to 100 (0 no effect, 100 complete control)
In short: as §2

barnyardgrass [21] = assay: Test C postemergence; format: in vivo, Echinochloa crusgalli; details: 10 days
In short: as §1

ragweed [22] = assay: Test C preemergence; format: in vivo, Ambrosia artemisiifolia; details: for Plant response rating, Ragweed: Preemergence; for Ragweed plant response rating: preemergence
In short: as §1

corn [23] = assay: Test C preemergence; format: in vivo, Zea mays; details: for Plant response rating, Corn: Preemergence; for Corn plant response rating: preemergence
In short: as §1

[24] = 500 g ai/ha, visual rating after 10 days, 0 to 100 scale (0 no effect, 100 complete control)
[25] = Test C, 125 g ai/ha, 0 to 100 scale (0 no effect, 100 complete control)
[26] = 125 g ai/ha, postemergence, 0 to 100 scale, 0 no effect, 100 complete control
[27] = Postemergence, 500 g ai/ha, visual 0 to 100 scale (0 no effect, 100 complete control)
[28] = 500 g ai/ha, 0 to 100 scale (0 no effect, 100 complete control)
[29] = 125 g ai/ha, 0 to 100 scale, 0 no effect, 100 complete control
[30] = 500 g ai/ha, postemergence, 0 to 100 scale (0 no effect, 100 complete control)
[31] = Postemergence, 125 g ai/ha, 0 to 100 scale (0 no effect, 100 complete control)

Cc1cc(-n2cnc(C(C)C)n2)cc(C(=O)N2C[C@H](C)Oc3c(Cl)cccc32)c1Cl [Compound 220]
Plant response rating, Foxtail, Green (green foxtail [1]; [24]): 100 | Foxtail, Green plant response rating (green foxtail [1]; [25]): 100 | Plant response rating, Blackgrass (blackgrass [2]; [26]): 40 | Plant response rating, Blackgrass (blackgrass [2]; [27]): 50 | Plant response rating, Pigweed, Palmer (pigweed, palmer [3]; [26]): 90 | Plant response rating, Pigweed, Palmer (pigweed, palmer [3]; [27]): 100 | Plant response rating, Kochia (kochia [4]; [26]): 70 | Plant response rating, Kochia (kochia [4]; [27]): 90 | Plant response rating, Horseweed (horseweed; [26]): 60 | Plant response rating, Horseweed (horseweed; [27]): 30 | Plant response rating, Ryegrass, Italian (ryegrass, Italian [5]; [26]): 30 | Plant response rating, Ryegrass, Italian (ryegrass, Italian [5]; [27]): 70 | Plant response rating, Blackgrass (blackgrass [6]; [24]): 70 | Blackgrass plant response rating (blackgrass [6]; [25]): 40 | Plant response rating, Ragweed (ragweed [7]; [26]): 0 | Plant response rating, Ragweed (ragweed [7]; [27]): 0 | Plant response rating, Barnyardgrass (Flood) (barnyardgrass [8]): 0 | Plant response rating, Foxtail, Green (green foxtail [9]; [26]): 20 | Plant response rating, Foxtail, Green (green foxtail [9]; [27]): 50 | Plant response rating, Oat, Wild (oat, wild [10]; [26]): 0 | Plant response rating, Oat, Wild (oat, wild [10]; [27]): 0 | Plant response rating, Wheat (wheat [11]; [24]): 70 | Wheat plant response rating (wheat [11]; [25]): 20 | Plant response rating, Kochia (kochia [12]; [24]): 90 | Kochia plant response rating (kochia [12]; [25]): 80 | Plant response rating, Corn (corn [13]; [26]): 10 | Plant response rating, Corn (corn [13]; [27]): 20 | Plant response rating, Barnyardgrass (barnyardgrass [14]; [24]): 80 | Barnyardgrass plant response rating (barnyardgrass [14]; [25]): 50 | Plant response rating, Soybean (soybean [15]; [26]): 100 | Plant response rating, Soybean (soybean [15]; [27]): 100 | Plant response rating, Ryegrass, Italian (ryegrass, Italian [16]; [24]): 90 | Ryegrass, Italian plant response rating (ryegrass, Italian [16]; [25]): 80 | Plant response rating, Rice (Flood) (rice): 0 | Plant response rating, Pigweed, Palmer (pigweed, palmer [17]; [24]): 100 | Pigweed, Palmer plant response rating (pigweed, palmer [17]; [25]): 90 | Plant response rating, Wheat (wheat [18]; [26]): 20 | Plant response rating, Wheat (wheat [18]; [27]): 20 | Plant response rating, Ducksalad (Flood) (ducksalad): 0 | Plant response rating, Oat, Wild (oat, wild [19]; [24]): 70 | Oat, Wild plant response rating (oat, wild [19]; [25]): 60 | Plant response rating, Soybean (soybean [20]; [24]): 80 | Soybean plant response rating (soybean [20]; [25]): 0 | Plant response rating, Galium (galium; [26]): 100 | Plant response rating, Galium (galium; [27]): 100 | Plant response rating, Sedge, Umbrella (Flood) (sedge, umbrella): 0 | Plant response rating, Barnyardgrass (barnyardgrass [21]; [26]): 30 | Plant response rating, Barnyardgrass (barnyardgrass [21]; [27]): 90 | Plant response rating, Ragweed (ragweed [22]; [24]): 0 | Ragweed plant response rating (ragweed [22]; [25]): 0 | Plant response rating, Corn (corn [23]; [24]): 10 | Corn plant response rating (corn [23]; [25]): 0

CC(C)c1ncn(-c2cccc(C(=O)N3CC(C(F)(F)F)Oc4c(Cl)cccc43)c2)n1 (centres unmarked) [Compound 348]
Foxtail, Green plant response rating (green foxtail [1]; [28]): 100 | Plant response rating, Foxtail, Green (green foxtail [1]; [29]): 100 | Plant response rating, Blackgrass (blackgrass [2]; [30]): 100 | Plant response rating, Blackgrass (blackgrass [2]; [31]): 70 | Plant response rating, Pigweed, Palmer (pigweed, palmer [3]; [30]): 100 | Plant response rating, Pigweed, Palmer (pigweed, palmer [3]; [31]): 90 | Plant response rating, Kochia (kochia [4]; [30]): 100 | Plant response rating, Kochia (kochia [4]; [31]): 70 | Plant response rating, Horseweed (horseweed; [30]): 40 | Plant response rating, Horseweed (horseweed; [31]): 0 | Plant response rating, Ryegrass, Italian (ryegrass, Italian [5]; [30]): 70 | Plant response rating, Ryegrass, Italian (ryegrass, Italian [5]; [31]): 30 | Blackgrass plant response rating (blackgrass [6]; [28]): 90 | Plant response rating, Blackgrass (blackgrass [6]; [29]): 50 | Plant response rating, Ragweed (ragweed [7]; [30]): 60 | Plant response rating, Ragweed (ragweed [7]; [31]): 30 | Plant response rating, Barnyardgrass (Flood) (barnyardgrass [8]): 30 | Plant response rating, Foxtail, Green (green foxtail [9]; [30]): 70 | Plant response rating, Foxtail, Green (green foxtail [9]; [31]): 50 | Plant response rating, Oat, Wild (oat, wild [10]; [30]): 60 | Plant response rating, Oat, Wild (oat, wild [10]; [31]): 20 | Wheat plant response rating (wheat [11]; [28]): 80 | Plant response rating, Wheat (wheat [11]; [29]): 50 | Kochia plant response rating (kochia [12]; [28]): 100 | Plant response rating, Kochia (kochia [12]; [29]): 90 | Plant response rating, Corn (corn [13]; [30]): 30 | Plant response rating, Corn (corn [13]; [31]): 10 | Barnyardgrass plant response rating (barnyardgrass [14]; [28]): 100 | Plant response rating, Barnyardgrass (barnyardgrass [14]; [29]): 60 | Plant response rating, Soybean (soybean [15]; [30]): 100 | Plant response rating, Soybean (soybean [15]; [31]): 100 | Ryegrass, Italian plant response rating (ryegrass, Italian [16]; [28]): 100 | Plant response rating, Ryegrass, Italian (ryegrass, Italian [16]; [29]): 90 | Plant response rating, Rice (Flood) (rice): 0 | Pigweed, Palmer plant response rating (pigweed, palmer [17]; [28]): 100 | Plant response rating, Pigweed, Palmer (pigweed, palmer [17]; [29]): 100 | Plant response rating, Wheat (wheat [18]; [30]): 30 | Plant response rating, Wheat (wheat [18]; [31]): 10 | Plant response rating, Ducksalad (Flood) (ducksalad): 75 | Oat, Wild plant response rating (oat, wild [19]; [28]): 90 | Plant response rating, Oat, Wild (oat, wild [19]; [29]): 60 | Soybean plant response rating (soybean [20]; [28]): 80 | Plant response rating, Soybean (soybean [20]; [29]): 40 | Plant response rating, Galium (galium; [30]): 100 | Plant response rating, Galium (galium; [31]): 100 | Plant response rating, Sedge, Umbrella (Flood) (sedge, umbrella): 45 | Plant response rating, Barnyardgrass (barnyardgrass [21]; [30]): 40 | Plant response rating, Barnyardgrass (barnyardgrass [21]; [31]): 10 | Ragweed plant response rating (ragweed [22]; [28]): 20 | Plant response rating, Ragweed (ragweed [22]; [29]): 20 | Corn plant response rating (corn [23]; [28]): 0 | Plant response rating, Corn (corn [23]; [29]): 0
